Bridge positions count the residues as written; N and C are the ends. Peptide text beside a SMILES is read from it. * marks the point of attachment. αGalNAc = CC(=O)N[C@@H]1[C@@H](O)[C@@H](O)[C@@H](CO)O[C@@H]1*; X3 = CC(=O)N[C@@H]1[C@@H](O)[C@H](O)[C@@H](CO)O[C@@H]1*; X7 = CC(=O)N[C@H]1[C@@H](O)[C@H](O)[C@@H](CO)O[C@@H]1*; αMan = OC[C@H]1O[C@H](*)[C@@H](O)[C@@H](O)[C@@H]1O; βGal = OC[C@H]1O[C@@H](*)[C@H](O)[C@@H](O)[C@H]1O; X6 = C[C@@H]1O[C@@H](*)[C@@H](O)[C@H](O)[C@@H]1O
Target: T1, thermolysin (Bacillus thermoproteolyticus, UniProt P00800)
T1 sequence (P00800 233-548): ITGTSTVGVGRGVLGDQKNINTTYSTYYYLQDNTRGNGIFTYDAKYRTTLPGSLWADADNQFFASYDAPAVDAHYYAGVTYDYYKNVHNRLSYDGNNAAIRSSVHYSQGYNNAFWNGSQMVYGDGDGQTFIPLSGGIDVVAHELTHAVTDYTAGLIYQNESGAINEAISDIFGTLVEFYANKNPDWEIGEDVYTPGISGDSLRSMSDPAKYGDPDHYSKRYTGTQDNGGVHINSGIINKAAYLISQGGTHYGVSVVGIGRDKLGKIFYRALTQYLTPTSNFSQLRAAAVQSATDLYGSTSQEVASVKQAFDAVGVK
Test: Proteolytic stability: half-life to thermolysin degradation
Format: in vitro ADME
Details: for Change in Half-Life to Thermolysin Degradation: glyco-variant minus its corresponding unglycosylated CBM (e.g. 2-1), *** not used in the correlation plot; for half-life: thermolysin (isolated protease), thermolysin degradation, mean of three trials ± SD, procedures as described previously (ESI ref 18)
Protocol: All error bars reported are standard deviations of data achieved from three separate trials.
cellulose that were determined in accordance with our procedures as described previously 18.
The results are presented as mean of three trials ± SD. *Denotes an averaged value of four trials

Question: What does the source list for `CC[C@H](C)[C@@H]1NC(=O)CNC(=O)CNC(=O)[C@@H](NC(=O)[C@H](CCC(N)=O)NC(=O)CNC(=O)[C@H](Cc2ccc(O)cc2)NC(=O)[C@H](Cc2c[nH]cn2)NC(=O)[C@H](CO[C@H]2O[C@H](CO)[C@@H](O)[C@H](O)[C@H]2NC(C)=O)NC(=O)[C@H](CCC(N)=O)NC(=O)[C@@H](N)[C@@H](C)O)CSSC[C@@H]2NC(=O)[C@H]([C@@H](C)O)NC(=O)[C@H]([C@@H](C)O)NC(=O)CNC(=O)[C@H](CO)NC(=O)[C@H](C)NC(=O)[C@H](CSSC[C@@H](C(=O)N[C@@H](CC(C)C)C(=O)O)NC(=O)[C@H](CCC(N)=O)NC(=O)[C@H](CO)NC(=O)[C@H](Cc3ccc(O)cc3)NC(=O)[C@H](Cc3ccc(O)cc3)NC(=O)[C@@H]3CCCN3C(=O)[C@H](CC(N)=O)NC(=O)[C@H](CC(C)C)NC(=O)[C@H](C(C)C)NC(=O)[C@H](CCC(N)=O)NC2=O)NC(=O)[C@H](C(C)C)NC(=O)[C@H]([C@@H](C)O)NC(=O)[C@@H]2CCCN2C(=O)CNC(=O)[C@H](CO)NC(=O)[C@H](Cc2ccc(O)cc2)NC(=O)CNC1=O` [CBM variant 22] (H-TQS(X3)HYGQCGGIGYSGPTVCASGTTCQVLNPYYSQCL-OH; disulfide 8-25, 19-35)?
Answer: Change in Half-Life to Thermolysin Degradation: 10.2 min; half-life: 24 ± 0.6 min

Question: Which “Change in Half-Life to Thermolysin Degradation” value (“Change in Half-Life” below) does the source give for `CC[C@H](C)[C@@H]1NC(=O)CNC(=O)CNC(=O)[C@@H](NC(=O)[C@H](CCC(N)=O)NC(=O)CNC(=O)[C@H](Cc2ccc(O)cc2)NC(=O)[C@H](Cc2c[nH]cn2)NC(=O)[C@H](CO[C@@H]2O[C@H](CO)[C@H](O)[C@H](O)[C@H]2O)NC(=O)[C@H](CCC(N)=O)NC(=O)[C@@H](N)[C@@H](C)O)CSSC[C@@H]2NC(=O)[C@H]([C@@H](C)O)NC(=O)[C@H]([C@@H](C)O)NC(=O)CNC(=O)[C@H](CO)NC(=O)[C@H](C)NC(=O)[C@H](CSSC[C@@H](C(=O)N[C@@H](CC(C)C)C(=O)O)NC(=O)[C@H](CCC(N)=O)NC(=O)[C@H](CO)NC(=O)[C@H](Cc3ccc(O)cc3)NC(=O)[C@H](Cc3ccc(O)cc3)NC(=O)[C@@H]3CCCN3C(=O)[C@H](CC(N)=O)NC(=O)[C@H](CC(C)C)NC(=O)[C@H](C(C)C)NC(=O)[C@H](CCC(N)=O)NC2=O)NC(=O)[C@H](C(C)C)NC(=O)[C@H]([C@@H](C)O)NC(=O)[C@@H]2CCCN2C(=O)CNC(=O)[C@H](CO)NC(=O)[C@H](Cc2ccc(O)cc2)NC(=O)CNC1=O` [CBM variant 27] (H-TQS(βGal)HYGQCGGIGYSGPTVCASGTTCQVLNPYYSQCL-OH; disulfide 8-25, 19-35) here?
Answer: The value was 3.6 min.

Question: And the half-life?
Answer: The half-life was 17.4 ± 1.2 min.

Question: `CC[C@H](C)[C@@H]1NC(=O)CNC(=O)CNC(=O)[C@@H](NC(=O)[C@H](CCC(N)=O)NC(=O)CNC(=O)[C@H](Cc2ccc(O)cc2)NC(=O)[C@H](Cc2c[nH]cn2)NC(=O)[C@H](CO[C@H]2O[C@H](CO)[C@@H](O)[C@H](O)[C@@H]2NC(C)=O)NC(=O)[C@H](CCC(N)=O)NC(=O)[C@@H](N)[C@@H](C)O)CSSC[C@@H]2NC(=O)[C@H]([C@@H](C)O)NC(=O)[C@H]([C@@H](C)O)NC(=O)CNC(=O)[C@H](CO)NC(=O)[C@H](C)NC(=O)[C@H](CSSC[C@@H](C(=O)N[C@@H](CC(C)C)C(=O)O)NC(=O)[C@H](CCC(N)=O)NC(=O)[C@H](CO)NC(=O)[C@H](Cc3ccc(O)cc3)NC(=O)[C@H](Cc3ccc(O)cc3)NC(=O)[C@@H]3CCCN3C(=O)[C@H](CC(N)=O)NC(=O)[C@H](CC(C)C)NC(=O)[C@H](C(C)C)NC(=O)[C@H](CCC(N)=O)NC2=O)NC(=O)[C@H](C(C)C)NC(=O)[C@H]([C@@H](C)O)NC(=O)[C@@H]2CCCN2C(=O)CNC(=O)[C@H](CO)NC(=O)[C@H](Cc2ccc(O)cc2)NC(=O)CNC1=O` [CBM variant 21] (H-TQS(X7)HYGQCGGIGYSGPTVCASGTTCQVLNPYYSQCL-OH; disulfide 8-25, 19-35) was tested. Which “Change in Half-Life” value did it give?
Answer: Its value is 27.6 min.

Question: What about the half-life of the same compound?
Answer: Its half-life is 41.4 ± 5.4 min.

Question: For `CC[C@H](C)[C@@H]1NC(=O)CNC(=O)CNC(=O)[C@@H](NC(=O)[C@H](CCC(N)=O)NC(=O)CNC(=O)[C@H](Cc2ccc(O)cc2)NC(=O)[C@H](Cc2c[nH]cn2)NC(=O)[C@@H](NC(=O)[C@H](CCC(N)=O)NC(=O)[C@@H](N)[C@@H](C)O)[C@@H](C)O)CSSC[C@@H]2NC(=O)[C@H]([C@@H](C)O)NC(=O)[C@H]([C@@H](C)O)NC(=O)CNC(=O)[C@H](CO)NC(=O)[C@H](C)NC(=O)[C@H](CSSC[C@@H](C(=O)N[C@@H](CC(C)C)C(=O)O)NC(=O)[C@H](CCC(N)=O)NC(=O)[C@H](CO)NC(=O)[C@H](Cc3ccc(O)cc3)NC(=O)[C@H](Cc3ccc(O)cc3)NC(=O)[C@@H]3CCCN3C(=O)[C@H](CC(N)=O)NC(=O)[C@H](CC(C)C)NC(=O)[C@H](C(C)C)NC(=O)[C@H](CCC(N)=O)NC2=O)NC(=O)[C@H](C(C)C)NC(=O)[C@H]([C@@H](C)O)NC(=O)[C@@H]2CCCN2C(=O)CNC(=O)[C@H](CO)NC(=O)[C@H](Cc2ccc(O)cc2)NC(=O)CNC1=O` [CBM variant 12] (H-TQTHYGQCGGIGYSGPTVCASGTTCQVLNPYYSQCL-OH; disulfide 8-25, 19-35), which half-life is on record?
Answer: Its half-life is 21.6 ± 1.2 min.

Question: Which “Change in Half-Life” value does the source give for `CC[C@H](C)[C@@H]1NC(=O)CNC(=O)CNC(=O)[C@@H](NC(=O)[C@H](CCC(N)=O)NC(=O)CNC(=O)[C@H](Cc2ccc(O)cc2)NC(=O)[C@H](Cc2c[nH]cn2)NC(=O)[C@H](CO[C@@H]2O[C@@H](C)[C@@H](O)[C@@H](O)[C@@H]2O)NC(=O)[C@H](CCC(N)=O)NC(=O)[C@@H](N)[C@@H](C)O)CSSC[C@@H]2NC(=O)[C@H]([C@@H](C)O)NC(=O)[C@H]([C@@H](C)O)NC(=O)CNC(=O)[C@H](CO)NC(=O)[C@H](C)NC(=O)[C@H](CSSC[C@@H](C(=O)N[C@@H](CC(C)C)C(=O)O)NC(=O)[C@H](CCC(N)=O)NC(=O)[C@H](CO)NC(=O)[C@H](Cc3ccc(O)cc3)NC(=O)[C@H](Cc3ccc(O)cc3)NC(=O)[C@@H]3CCCN3C(=O)[C@H](CC(N)=O)NC(=O)[C@H](CC(C)C)NC(=O)[C@H](C(C)C)NC(=O)[C@H](CCC(N)=O)NC2=O)NC(=O)[C@H](C(C)C)NC(=O)[C@H]([C@@H](C)O)NC(=O)[C@@H]2CCCN2C(=O)CNC(=O)[C@H](CO)NC(=O)[C@H](Cc2ccc(O)cc2)NC(=O)CNC1=O` [CBM variant 28] (H-TQS(X6)HYGQCGGIGYSGPTVCASGTTCQVLNPYYSQCL-OH; disulfide 8-25, 19-35) here?
Answer: The value was 23.4 min.

Question: And the half-life?
Answer: The half-life was 37.2 ± 6.6 min.

Question: `CC[C@H](C)[C@@H]1NC(=O)CNC(=O)CNC(=O)[C@@H](NC(=O)[C@H](CCC(N)=O)NC(=O)CNC(=O)[C@H](Cc2ccc(O)cc2)NC(=O)[C@H](Cc2c[nH]cn2)NC(=O)[C@H](CS[C@H]2O[C@H](CO)[C@@H](O)[C@H](O)[C@@H]2O)NC(=O)[C@H](CCC(N)=O)NC(=O)[C@@H](N)[C@@H](C)O)CSSC[C@@H]2NC(=O)[C@H]([C@@H](C)O)NC(=O)[C@H]([C@@H](C)O)NC(=O)CNC(=O)[C@H](CO)NC(=O)[C@H](C)NC(=O)[C@H](CSSC[C@@H](C(=O)N[C@@H](CC(C)C)C(=O)O)NC(=O)[C@H](CCC(N)=O)NC(=O)[C@H](CO)NC(=O)[C@H](Cc3ccc(O)cc3)NC(=O)[C@H](Cc3ccc(O)cc3)NC(=O)[C@@H]3CCCN3C(=O)[C@H](CC(N)=O)NC(=O)[C@H](CC(C)C)NC(=O)[C@H](C(C)C)NC(=O)[C@H](CCC(N)=O)NC2=O)NC(=O)[C@H](C(C)C)NC(=O)[C@H]([C@@H](C)O)NC(=O)[C@@H]2CCCN2C(=O)CNC(=O)[C@H](CO)NC(=O)[C@H](Cc2ccc(O)cc2)NC(=O)CNC1=O` [CBM variant 15] (H-TQC(αMan)HYGQCGGIGYSGPTVCASGTTCQVLNPYYSQCL-OH; disulfide 8-25, 19-35) was tested. Which “Change in Half-Life” value did it give?
Answer: Its value is 1.2 min.

Question: What about the half-life of the same compound?
Answer: The half-life was 12 ± 1.8 min.

Question: What does the source list for `CC[C@H](C)[C@@H]1NC(=O)CNC(=O)CNC(=O)[C@@H](NC(=O)[C@H](CCC(N)=O)NC(=O)CNC(=O)[C@H](Cc2ccc(O)cc2)NC(=O)[C@H](Cc2c[nH]cn2)NC(=O)[C@H](CO[C@H]2O[C@H](CO)[C@H](O)[C@H](O)[C@H]2NC(C)=O)NC(=O)[C@H](CCC(N)=O)NC(=O)[C@@H](N)[C@@H](C)O)CSSC[C@@H]2NC(=O)[C@H]([C@@H](C)O)NC(=O)[C@H]([C@@H](C)O)NC(=O)CNC(=O)[C@H](CO)NC(=O)[C@H](C)NC(=O)[C@H](CSSC[C@@H](C(=O)N[C@@H](CC(C)C)C(=O)O)NC(=O)[C@H](CCC(N)=O)NC(=O)[C@H](CO)NC(=O)[C@H](Cc3ccc(O)cc3)NC(=O)[C@H](Cc3ccc(O)cc3)NC(=O)[C@@H]3CCCN3C(=O)[C@H](CC(N)=O)NC(=O)[C@H](CC(C)C)NC(=O)[C@H](C(C)C)NC(=O)[C@H](CCC(N)=O)NC2=O)NC(=O)[C@H](C(C)C)NC(=O)[C@H]([C@@H](C)O)NC(=O)[C@@H]2CCCN2C(=O)CNC(=O)[C@H](CO)NC(=O)[C@H](Cc2ccc(O)cc2)NC(=O)CNC1=O` [CBM variant 25] (H-TQS(αGalNAc)HYGQCGGIGYSGPTVCASGTTCQVLNPYYSQCL-OH; disulfide 8-25, 19-35)?
Answer: Change in Half-Life to Thermolysin Degradation: 9 min; half-life: 22.8 ± 3 min

Reference: PMC5580309, “Molecular-scale features that govern the effects of O-glycosylation on a carbohydrate-binding module” (Chemical Science, 2015)
